From patent US20220339143A1, “TAK-925 FOR USE IN TREATING NARCOLEPSY” (Takeda Pharmaceutical Company Limited, priority 2019, published 2022)
Like-named read-outs stand apart in the source and are kept apart here.

Assay: Single dose PK in healthy subjects (Cohorts 1, 2, S1 and S2), plasma
Assay type: in vivo, human
Conditions: human, plasma, intravenous
Experimental: This study investigates (i) the safety and tolerability of Compound A (methyl (2R,3S)-3-((methylsulfonyl)amino)-2-(((cis-4-phenylcyclohexyl)oxy)methyl)piperidine-1-carboxylate) when a single dose given as a 9 hour continuous IV infusion is administered to healthy adults, healthy elderly subjects and patients with narcolepsy type 1 (NT1); (ii) the pharmacokinetics of Compound A when a single dose given as a 9 hour continuous IV infusion is administered to healthy adults, healthy elderly subjects and patients with narcolepsy type 1; and (iii) the pharmacodynamics (PD) effects of Compound A, primarily by evaluation of the sleep latency on MWT when a single dose given as a 9 hour continuous IV infusion is administered to patients with narcolepsy type 1.
Pharmacokinetics: Concentrations of Compound A in plasma, and CSF, and pharmacokinetics parameters.
On average, the time to reach the plateau appeared to be approximately 3 to 4 hours after the start of infusion. […] After switching off the IV infusion, Compound A plasma concentrations declined rapidly and in a biphasic manner with a mean terminal disposition phase t1/2z ranging approximately from 3.4 to 5.1 hours across all doses. […] Table 5 provides a summary of plasma concentrations of Compound A after a single IV infusion in healthy subjects. Table 6 provides a summary of pharmacokinetic parameters of Compound A after a single IV infusion in healthy subjects.

[1] = 14 mg, read-out: Plasma concentration, Maximum
[2] = 14 mg, read-out: Plasma concentration, Mean
[3] = 14 mg, read-out: Plasma concentration, Median
[4] = 14 mg, read-out: Plasma concentration, Minimum
[5] = 14 mg, read-out: Plasma concentration, Q1
[6] = 14 mg, read-out: Plasma concentration, Q3
[7] = 28 mg, read-out: Plasma concentration, Maximum
[8] = 28 mg, read-out: Plasma concentration, Mean
[9] = 28 mg, read-out: Plasma concentration, Median
[10] = 28 mg, read-out: Plasma concentration, Minimum
[11] = 28 mg, read-out: Plasma concentration, Q1
[12] = 28 mg, read-out: Plasma concentration, Q3

`COC(=O)N1CCC[C@H](NS(C)(=O)=O)[C@@H]1CO[C@H]1CC[C@@H](c2ccccc2)CC1` [Compound A, methyl (2R,3S)-3-((methylsulfonyl)amino)-2-(((cis-4-phenylcyclohexyl)oxy)methyl)piperidine-1-carboxylate] gave a concentration at 3 hr (7 mg, 3 hr, read-out: Plasma concentration, Q1) of 15.1 ng/mL, a concentration at 3 h (7 mg, 3 hr, read-out: Plasma concentration, Q3) of 18.8 ng/mL and a concentration at 4 h (7 mg, 4 hr, read-out: Plasma concentration, Maximum) of 20.6 ng/mL. The concentration at 4 h (7 mg, 4 hr, read-out: Plasma concentration, Mean) was 15.9 ng/mL, the concentration at 4 h (7 mg, 4 hr, read-out: Plasma concentration, Median) was 15.5 ng/mL and the concentration at 4 h (7 mg, 4 hr, read-out: Plasma concentration, Minimum) was 11.1 ng/mL. The concentration at 4 hr (7 mg, 4 hr, read-out: Plasma concentration, Q1) was 15.2 ng/mL, the concentration at 4 h (7 mg, 4 hr, read-out: Plasma concentration, Q3) was 17.6 ng/mL and the concentration at 6 h (7 mg, 6 hr, read-out: Plasma concentration, Maximum) was 15.9 ng/mL. It also gave a concentration at 6 h (7 mg, 6 hr, read-out: Plasma concentration, Mean) of 12.2 ng/mL, a concentration at 6 h (7 mg, 6 hr, read-out: Plasma concentration, Median) of 12.4 ng/mL and a concentration at 6 h (7 mg, 6 hr, read-out: Plasma concentration, Minimum) of 8.82 ng/mL. The concentration at 6 hr (7 mg, 6 hr, read-out: Plasma concentration, Q1) was 11.4 ng/mL, the concentration at 6 h (7 mg, 6 hr, read-out: Plasma concentration, Q3) was 12.5 ng/mL and the concentration at 8 h (7 mg, 8 hr, read-out: Plasma concentration, Maximum) was 16.1 ng/mL. The concentration at 8 h (7 mg, 8 hr, read-out: Plasma concentration, Mean) was 13 ng/mL, the concentration at 8 h (7 mg, 8 hr, read-out: Plasma concentration, Median) was 13.1 ng/mL and the concentration at 8 h (7 mg, 8 hr, read-out: Plasma concentration, Minimum) was 9.5 ng/mL. For the same compound, the concentration at 8 hr (7 mg, 8 hr, read-out: Plasma concentration, Q1) was 12.8 ng/mL, the concentration at 8 h (7 mg, 8 hr, read-out: Plasma concentration, Q3) was 13.4 ng/mL and the concentration at 9 h (7 mg, 9 hr, read-out: Plasma concentration, Maximum) was 15.2 ng/mL. The concentration at 9 h (7 mg, 9 hr, read-out: Plasma concentration, Mean) was 13.5 ng/mL, the concentration at 9 h (7 mg, 9 hr, read-out: Plasma concentration, Median) was 13.9 ng/mL and the concentration at 9 h (7 mg, 9 hr, read-out: Plasma concentration, Minimum) was 10.2 ng/mL. It also gave a concentration at 9 hr (7 mg, 9 hr, read-out: Plasma concentration, Q1) of 13.2 ng/mL, a concentration at 9 h (7 mg, 9 hr, read-out: Plasma concentration, Q3) of 15 ng/mL and a concentration at 0.5 h [1] of 27.2 ng/mL. It also gave a concentration at 0.5 h [2] of 22.5 ng/mL, a concentration at 0.5 h [3] of 22.1 ng/mL and a concentration at 0.5 h [4] of 18 ng/mL. It also gave a concentration at 0.5 h [5] of 21.7 ng/mL, a concentration at 0.5 h [6] of 23.9 ng/mL and a concentration at 1 h [1] of 32.1 ng/mL. It also gave a concentration at 1 h [2] of 26.6 ng/mL, a concentration at 1 h [3] of 26.9 ng/mL and a concentration at 1 h [4] of 21.8 ng/mL. The concentration at 1 h [5] was 22.6 ng/mL, the concentration at 1 h [6] was 29.7 ng/mL and the concentration at 1.5 h [1] was 36.1 ng/mL. The concentration at 1.5 h [2] was 30.4 ng/mL, the concentration at 1.5 h [3] was 29 ng/mL and the concentration at 1.5 h [4] was 27.4 ng/mL. For the same compound, the concentration at 1.5 h [5] was 27.6 ng/mL, the concentration at 1.5 h [6] was 33.6 ng/mL and the concentration at 2 h (14 mg, 2 hr, read-out: Plasma concentration, Maximum) was 37.8 ng/mL. For the same compound, the concentration at 2 h (14 mg, 2 hr, read-out: Plasma concentration, Mean) was 32.9 ng/mL, the concentration at 2 h (14 mg, 2 hr, read-out: Plasma concentration, Median) was 32 ng/mL and the concentration at 2 h (14 mg, 2 hr, read-out: Plasma concentration, Minimum) was 29.6 ng/mL. It also gave a concentration at 2 h (14 mg, 2 hr, read-out: Plasma concentration, Q1) of 30 ng/mL, a concentration at 2 h (14 mg, 2 hr, read-out: Plasma concentration, Q3) of 35.8 ng/mL and a concentration at 3 h (14 mg, 3 hr, read-out: Plasma concentration, Maximum) of 43.5 ng/mL. For the same compound, the concentration at 3 h (14 mg, 3 hr, read-out: Plasma concentration, Mean) was 35.8 ng/mL, the concentration at 3 h (14 mg, 3 hr, read-out: Plasma concentration, Median) was 34.3 ng/mL and the concentration at 3 h (14 mg, 3 hr, read-out: Plasma concentration, Minimum) was 31.8 ng/mL. It also gave a concentration at 3 h (14 mg, 3 hr, read-out: Plasma concentration, Q1) of 32.1 ng/mL, a concentration at 3 h (14 mg, 3 hr, read-out: Plasma concentration, Q3) of 39 ng/mL and a concentration at 4 h (14 mg, 4 hr, read-out: Plasma concentration, Maximum) of 40.4 ng/mL. The concentration at 4 h (14 mg, 4 hr, read-out: Plasma concentration, Mean) was 36.4 ng/mL, the concentration at 4 h (14 mg, 4 hr, read-out: Plasma concentration, Median) was 37 ng/mL and the concentration at 4 h (14 mg, 4 hr, read-out: Plasma concentration, Minimum) was 31 ng/mL. The concentration at 4 h (14 mg, 4 hr, read-out: Plasma concentration, Q1) was 33 ng/mL, the concentration at 4 h (14 mg, 4 hr, read-out: Plasma concentration, Q3) was 40 ng/mL and the concentration at 6 h (14 mg, 6 hr, read-out: Plasma concentration, Maximum) was 35.2 ng/mL. For the same compound, the concentration at 6 h (14 mg, 6 hr, read-out: Plasma concentration, Mean) was 29.3 ng/mL, the concentration at 6 h (14 mg, 6 hr, read-out: Plasma concentration, Median) was 29.7 ng/mL and the concentration at 6 h (14 mg, 6 hr, read-out: Plasma concentration, Minimum) was 23.1 ng/mL. For the same compound, the concentration at 6 h (14 mg, 6 hr, read-out: Plasma concentration, Q1) was 23.9 ng/mL, the concentration at 6 h (14 mg, 6 hr, read-out: Plasma concentration, Q3) was 34.4 ng/mL and the concentration at 8 h (14 mg, 8 hr, read-out: Plasma concentration, Maximum) was 34.4 ng/mL. For the same compound, the concentration at 8 h (14 mg, 8 hr, read-out: Plasma concentration, Mean) was 28.9 ng/mL, the concentration at 8 h (14 mg, 8 hr, read-out: Plasma concentration, Median) was 29.9 ng/mL and the concentration at 8 h (14 mg, 8 hr, read-out: Plasma concentration, Minimum) was 22.6 ng/mL. It also gave a concentration at 8 h (14 mg, 8 hr, read-out: Plasma concentration, Q1) of 24.6 ng/mL, a concentration at 8 h (14 mg, 8 hr, read-out: Plasma concentration, Q3) of 32.3 ng/mL and a concentration at 9 h (14 mg, 9 hr, read-out: Plasma concentration, Maximum) of 34.2 ng/mL. For the same compound, the concentration at 9 h (14 mg, 9 hr, read-out: Plasma concentration, Mean) was 30.1 ng/mL, the concentration at 9 h (14 mg, 9 hr, read-out: Plasma concentration, Median) was 30.8 ng/mL and the concentration at 9 h (14 mg, 9 hr, read-out: Plasma concentration, Minimum) was 22.8 ng/mL. For the same compound, the concentration at 9 h (14 mg, 9 hr, read-out: Plasma concentration, Q1) was 28.4 ng/mL, the concentration at 9 h (14 mg, 9 hr, read-out: Plasma concentration, Q3) was 33.5 ng/mL and the concentration at 0.5 h [7] was 48.7 ng/mL. For the same compound, the concentration at 0.5 hr [8] was 34.4 ng/mL, the concentration at 0.5 hr [9] was 32 ng/mL and the concentration at 0.5 hr [10] was 19.1 ng/mL. The concentration at 0.5 hr [11] was 29.6 ng/mL, the concentration at 0.5 h [12] was 42.6 ng/mL and the concentration at 1 h [7] was 51.8 ng/mL. It also gave a concentration at 1 hr [8] of 37.9 ng/mL, a concentration at 1 hr [9] of 36.6 ng/mL and a concentration at 1 hr [10] of 21.7 ng/mL. The concentration at 1 hr [11] was 36.5 ng/mL, the concentration at 1 h [12] was 42.8 ng/mL and the concentration at 1.5 h [7] was 55.9 ng/mL. The concentration at 1.5 hr [8] was 44.9 ng/mL, the concentration at 1.5 h [9] was 47.1 ng/mL and the concentration at 1.5 hr [10] was 27.2 ng/mL. For the same compound, the concentration at 1.5 hr [11] was 44.4 ng/mL, the concentration at 1.5 h [12] was 49.9 ng/mL and the concentration at 2 h (28 mg, 2 hr, read-out: Plasma concentration, Maximum) was 58.4 ng/mL. It also gave a concentration at 2 hr (28 mg, 2 hr, read-out: Plasma concentration, Mean) of 50.1 ng/mL and a concentration at 2 h (28 mg, 2 hr, read-out: Plasma concentration, Median) of 54.9 ng/mL.
